Test results taken from BigSolDB 2.1.

Cc1cc(=O)c(C(=O)N[C@@H](C(=O)N[C@@H]2C(=O)N3C(C(=O)O)=C(CSc4nnnn4C)CS[C@H]23)c2ccc(O)cc2)c[nH]1
solubility (mole fraction)
Conditions	278.2 K	283.2 K	288.2 K	293.2 K	298.2 K	303.2 K
in ethanol	0.000445	0.000508	0.000592	0.00069	0.000834	0.00101
in isopropanol	0.000118	0.00015	0.000187	0.000236	0.000297	0.000376
in n-butanol	9.53e-05	0.000115	0.000139	0.000166	0.0002	0.000245
in n-propanol	0.000242	0.00027	0.000305	0.000348	0.000407	0.000479
in water	4.04e-07	4.82e-07	5.8e-07	6.99e-07	8.5e-07	1.04e-06
